The test system of data set [1] is human foreskin fibroblasts (HFF). The data set can be described thus: Toxicity for host cells. It is filed as cell-based. To be noted: uptake of 3H thymidine by nonconfluent HFF.
Data set [2] in a line: Human liver microsomal stability. In kind it is in vitro ADME. To be noted: compared with control drug verapamil. (Liver microsomes are vesicles of endoplasmic reticulum, rich in cytochrome P450 enzymes.)
The subject of another data set is P. falciparum ENR. To be noted: read-out: IC50 against P. falciparum ENR; cited from earlier work.
For a further data set, the target named is T1, TgENR (Toxoplasma gondii, UniProt Q6UCJ9).
T1 sequence (Q6UCJ9 28-417): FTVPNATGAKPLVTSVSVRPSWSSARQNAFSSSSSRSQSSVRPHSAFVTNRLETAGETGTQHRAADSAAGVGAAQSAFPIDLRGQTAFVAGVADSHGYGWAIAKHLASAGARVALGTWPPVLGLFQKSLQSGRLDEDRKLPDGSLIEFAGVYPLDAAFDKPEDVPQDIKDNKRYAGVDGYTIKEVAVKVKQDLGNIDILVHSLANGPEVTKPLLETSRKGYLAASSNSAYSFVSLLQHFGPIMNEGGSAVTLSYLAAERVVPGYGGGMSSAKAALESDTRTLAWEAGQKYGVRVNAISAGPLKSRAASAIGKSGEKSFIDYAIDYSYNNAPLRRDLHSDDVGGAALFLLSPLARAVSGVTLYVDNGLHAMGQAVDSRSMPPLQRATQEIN
In words: TgENR inhibitor assay. In kind it is biochemical. To be noted: for Inhibition of TgENR, in words: recombinant TgENR enzyme assay.

In data set [3] the test system is T. gondii (RH strain, Type 1). In words: Testing of inhibitors in vivo, acute parenteral infection of mice. Also on record: species or system Toxoplasma gondii. To be noted: for Parasite burden in mice: CD1 mice infected intraperitoneally with 2000 T. gondii, inhibitors intraperitoneally at 10mg/kg, peritoneal cavity, day 5 post-infection, P<0.05; for Efficacy in protecting mice against parasite burden relative to triclosan: higher than triclosan itself.

Data set [4] concerns tachyzoites of RH strain of T. gondii. The data set can be described thus: Inhibition of T. gondii tachyzoites in vitro. In kind it is cell-based, Toxoplasma gondii. To be noted: uptake of tritiated uracil.
Another data set relates to S. aureus ENR. To be noted: cited from earlier work.
Another data set concerns E. coli ENR. To be noted: cited from earlier work.
For data set [5] the following is noted: earlier studies; cited from earlier work.

Data on ten molecules can be found in paper PMC2932859 (Journal of medicinal chemistry, 2010).

What is called IC50 is the concentration that gives 50% inhibition.

“Also recorded” adds a separate entry of the source.

With `O=[N+]([O-])c1ccc(Oc2ccc(Cl)cc2O)c(Cl)c1` [Compound 2], the “Toxicity to fibroblasts, in words” value in data set [1] is “lack of inhibition of fibroblast growth”. Further, the “Intrinsic clearance, metabolic rate in HLM, in words” value in data set [2] is recorded as “slower than the control drug verapamil”. In addition, the IC50 with P. falciparum ENR is 200 nM. Further, at TgENR, the IC50 was 45 nM and the “Inhibition of TgENR, in words” value is on record as “highly active”. In [3], the “Parasite burden in mice” value is listed as “reduce parasite burden” and the “Efficacy in protecting mice against parasite burden relative to triclosan” value was “approximately 5 times”. For the same molecule, the “Effect on T. gondii tachyzoites in tissue culture, in words” value (shortened to “Effect on T. gondii tachyzoites”) in data set [4] is given as “inhibition of T. gondii tachyzoites”.

In the case of `Oc1cc(Cl)ccc1Oc1ccc(-c2ccccc2)cc1` [Compound 6], on TgENR, the half-maximal inhibitory concentration (IC50) was greater than 2000 nM.

`Oc1cc(Cl)ccc1Oc1cccnc1` [Compound 17]: the “Inhibition of TgENR, in words” value at TgENR was “some activity”.

In the case of `Oc1cc(Cl)ccc1Oc1cnccn1` [Compound 18], the “Inhibition of TgENR, in words” value at TgENR is on record as “no activity”.

Regarding `CCCc1ccc(Oc2ccc(C#N)cc2Cl)c(O)c1` [Compound 19], the “Toxicity to fibroblasts, in words” value in data set [1] is given as “lack of inhibition of fibroblast growth; also recorded: not toxic”. Moreover, in data set [2], the “Intrinsic clearance, metabolic rate in HLM, in words” value is “slower than the control drug verapamil”. Further, in [3], the “Parasite burden in mice” value is “reduce parasite burden” and the “Efficacy in protecting mice against parasite burden relative to triclosan” value was “approximately 5 times”. The “Effect on T. gondii tachyzoites” value in [4] is reported as “inhibition of T. gondii tachyzoites; also recorded: efficacious”.

As to `CCCc1ccc(Oc2cccc(B(O)O)c2)c(O)c1` [Compound 20, 3-(2-Hydroxy-4-propylphenoxy)phenyl boronic acid], on TgENR, the “Inhibition of TgENR, in words” value is on record as “very effective inhibitor”.

Turning to `C/C=C/C=C/C(=O)Nc1ccc(Oc2ccc(Cl)cc2O)cc1` [Compound 25, Hexa-2,4-dienoic acid (4-(4-chloro-2-hydroxyphenoxy)-phenyl)amide], the “Toxicity to fibroblasts, in words” value in data set [1] is “toxic”. Further, in data set [4], the “Effect on T. gondii tachyzoites” value was “lack of inhibition”.

Consider `O=c1cc(OCc2ccccc2)ccn1Cc1ccc([N+](=O)[O-])cc1Cl` [Compound 39], for which the “Toxicity to fibroblasts, in words” value in data set [1] was “lack of inhibition of fibroblast growth”. The “Inhibition of TgENR, in words” value at TgENR is “low micro molar; also recorded: poor inhibitor”. For the same molecule, the “Effect on T. gondii tachyzoites” value in data set [4] is “inhibition of T. gondii tachyzoites”.

On to `CN(Cc1cc2ccccc2n1C)C(=O)/C=C/c1ccc(N)nc1` [Compound 50], for which the “Activity against S. aureus ENR, in words” value in the data set with S. aureus ENR was “very effective”. The “Inhibition of TgENR, in words” value at TgENR is “moderate activity”. The “Activity against E. coli ENR, in words” value with E. coli ENR was “very effective”.

As to `Oc1cc(Cl)ccc1Oc1ccc(Cl)cc1Cl` [Triclosan], the “Safety in mice, in words” value in data set [5] is “safe”.
